The record followed here is ChEMBL document CHEMBL1201862, “PubChem BioAssay data set” (2004).

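Where inhibition never reached the appropriate level, the endpoint shown equals the highest concentration tested. Otherwise, values were interpolated linearly from a five-concentration, 48-hour dose response in 96-well plates. At the GI50, growth is halved.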 The source made the active and inactive calls. No stated cut-off is given here; in the data, active = GI50 up to about 1.1 µM and inactive = higher. Where only a bound is given, the exact number is not on record here.

Some test systems named below: OVCAR-5; KM12; ACHN; SNB-75; UACC-257; HOP-92; HT-29; EKVX; SF-295; NCI-H226; NCI-H460; DU-145; HCT-116; HCC 2998; OVCAR-3; SF-539; SR; TK-10; SK-MEL-5; MCF7.
What all share (test): growth of human tumour cells (NCI), 48 h

Turning to `CC(O)c1cc2c(s1)C(=O)c1sccc1C2=O` (stereo not given), the GI50 is 0.186 µM (active) in the assay with OVCAR-5; 0.234 µM (active) in the assay with KM12; 0.15 µM (active) with ACHN; 0.0902 µM (active) with SNB-75; 0.0183 µM (active) in the assay with UACC-257; 0.386 µM (active) in the assay with HOP-92. The GI50 with HT-29 was 0.238 µM (active); in the assay with EKVX, 0.254 µM (active); with SF-295, 0.0792 µM (active); in the assay with NCI-H226 it was 0.207 µM (active); in the assay on NCI-H460, 0.127 µM (active); with DU-145, 0.0202 µM (active). Besides, the GI50 in the assay with HCT-116 is 0.151 µM (active); in the assay on HCC 2998, 0.202 µM (active); in the assay with OVCAR-3 it was 0.187 µM (active); with SF-539, 0.0401 µM (active); in the assay with SR, 0.0803 µM (active); in the assay with TK-10, 0.213 µM (active). For the same compound, the GI50 in the assay with SK-MEL-5 is 0.0164 µM (active); in the assay with MCF7, 0.152 µM (active).
In the case of `CCOP(=O)(OCC)c1cc2cc(O)ccc2oc1=O`, the GI50 in the assay with OVCAR-5, in the assay on KM12, in the assay with ACHN, with SNB-75, with UACC-257 and with HOP-92 was > 100 µM (inactive) throughout. The GI50 in the assay on HT-29, in the assay with EKVX, in the assay with SF-295, with NCI-H226, in the assay with NCI-H460 and in the assay on DU-145 was > 100 µM (inactive) in each case. Also, the GI50 in the assay with HCT-116, in the assay on HCC 2998, with OVCAR-3, with SF-539, with SR and with TK-10 was > 100 µM (inactive) throughout. Besides, the GI50 in the assay with SK-MEL-5 and in the assay on MCF7 was > 100 µM (inactive) in each case.
Take `COC(=O)CNC(=O)/C=C/[C@H](O[Si](C)(C)C(C)(C)C)[C@H](/C=C/C(=O)NCC(=O)OC)O[Si](C)(C)C(C)(C)C`: the GI50 in the assay on OVCAR-5, in the assay with KM12, in the assay with ACHN, in the assay with SNB-75, in the assay with UACC-257 and with HOP-92 was > 25 µM (inactive) in each case. Moreover, the GI50 with HT-29, with EKVX, in the assay on SF-295, with NCI-H226, in the assay with NCI-H460 and in the assay with DU-145 was > 25 µM (inactive) in each case. Moreover, the GI50 in the assay with HCT-116, in the assay with HCC 2998, in the assay with OVCAR-3, with SF-539, in the assay on SR and in the assay with TK-10 was > 25 µM (inactive) in each case. Also, the GI50 in the assay on SK-MEL-5 and in the assay with MCF7 was > 25 µM (inactive) each time.
As to `O=C(C/N=C(\CN(c1ccccc1)c1ccccc1)Oc1c(Cl)cc(Cl)cc1Cl)N1c2ccccc2Sc2ccccc21`, the GI50 in the assay with OVCAR-5 was 30.4 µM (inactive); in the assay with KM12 it was 38.1 µM (inactive); in the assay on ACHN, 39.9 µM (inactive); with SNB-75 it was 22.3 µM (inactive); with UACC-257, > 100 µM (inactive); with HOP-92 it was 21.9 µM (inactive). Further, the GI50 with HT-29 was 43.3 µM (inactive); with EKVX, > 100 µM (inactive); in the assay with SF-295, > 100 µM (inactive); in the assay with NCI-H226, 24.4 µM (inactive); in the assay on NCI-H460, 56.4 µM (inactive); with DU-145, > 100 µM (inactive). The GI50 is 34.9 µM (inactive) with HCT-116; 36.7 µM (inactive) in the assay on HCC 2998; 46.8 µM (inactive) in the assay with OVCAR-3; > 100 µM (inactive) in the assay with SF-539; 35.2 µM (inactive) in the assay on SR; 43.9 µM (inactive) in the assay with TK-10. For the same compound, the results for the GI50 in the assay with SK-MEL-5 and in the assay with MCF7 were 21.4 µM (inactive) and 32.3 µM (inactive), respectively.
`O=c1[nH]c2ccc(C(F)(F)F)cc2nc1C(F)(F)F`: the GI50 with OVCAR-5 is 35.6 µM (inactive); in the assay with KM12, 22.8 µM (inactive); with ACHN it was 30.9 µM (inactive); in the assay with SNB-75, 12.1 µM (inactive); in the assay with UACC-257, 23.6 µM (inactive); in the assay with HOP-92 it was 9.4 µM (inactive). Moreover, the GI50 in the assay with HT-29 is 29.2 µM (inactive); with EKVX it was 29.2 µM (inactive); with SF-295, 28.7 µM (inactive); in the assay on NCI-H226, 18.8 µM (inactive); in the assay with NCI-H460, 33.9 µM (inactive); in the assay on DU-145 it was 23.2 µM (inactive). Also, the GI50 with HCT-116 was 20.9 µM (inactive); in the assay with HCC 2998 it was 43.4 µM (inactive); in the assay on OVCAR-3, 14.9 µM (inactive); in the assay with SF-539 it was 21.3 µM (inactive); in the assay with SR, 39.4 µM (inactive); in the assay with TK-10, 27.9 µM (inactive). Further, the values for the GI50 with SK-MEL-5 and in the assay on MCF7 were 17.2 µM (inactive) and 23 µM (inactive), respectively.
As for `CCC1=C(c2ccc(OC)cc2)CC[C@@]2(CCNC2=O)[C@@H]1C`, the GI50 was > 100 µM (inactive) with OVCAR-5; > 94.2 µM (inactive) in the assay with KM12; > 89.7 µM (inactive) with ACHN; > 73.8 µM (inactive) in the assay on SNB-75; 28.2 µM (inactive) with UACC-257; > 100 µM (inactive) in the assay with HOP-92. Also, the GI50 was > 67.6 µM (inactive) in the assay on HT-29; 59.4 µM (inactive) in the assay on EKVX; > 55.2 µM (inactive) in the assay on SF-295; > 100 µM (inactive) with NCI-H226; > 100 µM (inactive) in the assay with NCI-H460; > 100 µM (inactive) with DU-145. The GI50 in the assay on HCT-116 was 76.2 µM (inactive); in the assay on HCC 2998, > 100 µM (inactive); in the assay on OVCAR-3 it was > 100 µM (inactive); with SF-539, > 100 µM (inactive); in the assay on SR, 24.7 µM (inactive); with TK-10, > 100 µM (inactive). Besides, the GI50 is 22.1 µM (inactive) with SK-MEL-5 and 70.8 µM (inactive) with MCF7.
Turning to `COc1ccc(CCCCl)c(C2=NCCc3ccccc32)c1`, the GI50 with OVCAR-5 is > 100 µM (inactive); with KM12, 27.4 µM (inactive); with ACHN, > 100 µM (inactive); with SNB-75, 29.1 µM (inactive); in the assay on UACC-257, 34.7 µM (inactive); with HOP-92 it was 71.1 µM (inactive). Further, the GI50 is 19.2 µM (inactive) in the assay with HT-29; 37.7 µM (inactive) with EKVX; 32.8 µM (inactive) with SF-295; 31.7 µM (inactive) in the assay with NCI-H226; 36.4 µM (inactive) in the assay with NCI-H460; > 100 µM (inactive) in the assay with DU-145. For the same compound, the GI50 with HCT-116 was 29.5 µM (inactive); with HCC 2998, 23.4 µM (inactive); with OVCAR-3, 56.5 µM (inactive); in the assay with SF-539 it was 35.8 µM (inactive); in the assay with SR, 28.1 µM (inactive); in the assay on TK-10, > 100 µM (inactive). Moreover, the GI50 with SK-MEL-5 is 9.59 µM (inactive); with MCF7 it was 38.2 µM (inactive).
With `C(=N\C12CC3CC(CC(C3)C1)C2)/C1CCCCC1`, the GI50 in the assay with OVCAR-5, in the assay on KM12, in the assay on ACHN, in the assay on SNB-75, in the assay on UACC-257 and with HOP-92 was > 100 µM (inactive) in each case. The GI50 with HT-29, in the assay with EKVX, in the assay on SF-295, in the assay on NCI-H226, with NCI-H460 and with DU-145 was > 100 µM (inactive) in each case. Besides, the GI50 in the assay on HCT-116, in the assay with HCC 2998, with OVCAR-3, with SF-539, with SR and in the assay with TK-10 was > 100 µM (inactive) each time. Also, the GI50 in the assay on SK-MEL-5 and with MCF7 was > 100 µM (inactive) throughout.
For `COC(=O)C1=C(O)C(C(=O)OC)[C@]2(O)[C@H](C(=O)OC)[C@H]1C[C@@H](c1ccc(O)cc1)[C@H]2C(=O)OC` (stereo not given in full), the GI50 is 23.8 µM (inactive) in the assay with OVCAR-5; 21.8 µM (inactive) in the assay on KM12; 36.4 µM (inactive) with ACHN; 20 µM (inactive) with SNB-75; 19.4 µM (inactive) in the assay with UACC-257; 79.8 µM (inactive) in the assay on HOP-92. In addition, the GI50 in the assay on HT-29 is 27.5 µM (inactive); in the assay on EKVX it was 32.3 µM (inactive); with SF-295, 22 µM (inactive); with NCI-H226, 44.4 µM (inactive); with NCI-H460, 23.7 µM (inactive); in the assay on DU-145, 23.1 µM (inactive). Besides, the GI50 in the assay on HCT-116 was 27.7 µM (inactive); in the assay on HCC 2998 it was 19.9 µM (inactive); in the assay with OVCAR-3 it was 11.5 µM (inactive); in the assay with SF-539, 30.3 µM (inactive); in the assay with SR, 23.2 µM (inactive); in the assay with TK-10, 25 µM (inactive). The GI50 was 37.3 µM (inactive) in the assay on SK-MEL-5 and 22.6 µM (inactive) with MCF7.
With `CC(=O)c1csc2c1C(=O)c1ccccc1C2=O`, the GI50 was 2.35 µM (inactive) in the assay on OVCAR-5; 1.53 µM (inactive) with KM12; 2.02 µM (inactive) in the assay with ACHN; 1.73 µM (inactive) with SNB-75; 1.46 µM (inactive) in the assay on UACC-257; 30.5 µM (inactive) in the assay on HOP-92. Besides, the GI50 in the assay with HT-29 is 2.02 µM (inactive); with EKVX it was 5.78 µM (inactive); in the assay on SF-295, 1.55 µM (inactive); with NCI-H226 it was 1.58 µM (inactive); in the assay with NCI-H460, 1.48 µM (inactive); with DU-145 it was 1.67 µM (inactive). For the same compound, the GI50 in the assay on HCT-116 is 2.24 µM (inactive); with HCC 2998, 1.75 µM (inactive); with OVCAR-3 it was 3.66 µM (inactive); in the assay on SF-539 it was 2.08 µM (inactive); with SR, 3.66 µM (inactive); with TK-10 it was 1.79 µM (inactive). Besides, the GI50 in the assay with SK-MEL-5 is 0.18 µM (active); in the assay with MCF7, 2.1 µM (inactive).
